# Biological target: T1, PD-1/PD-L1 (Homo sapiens, UniProt Q9NZQ7)
# T1 construct: purchased Cisbio 63ADK000CPDPEB
# Assay: PD-1/PD-L1 binding assay (HTRF, PPI-HTRF)
# Details: HTRF PD1/PD-L1 binding assay kit; 10 nM Tag1-PD-L1; 25° C.
# Procedure: Assay 1 PD-1/PD-L1 Binding Assay
# DMSO is from Sigma, Cat No: D5879; 384-well small volume plate (white) is from Greiner, Cat No: 784075; Anti-PD1 blocking antibody (IC50: 10 nM) is from Cisbio, Cat No: 64CUS000C-1a; Anti-PDL1 blocking antibody (IC50: 0.3 nM) is from Cisbio, Cat No: 64CUS000C-1b; HTRF PD1/PD-L1 binding assay kit is from Cisbio, Cat No: 63ADK000CPDPEB.
# 1. Prepare the compound to be tested at 2x concentration into 1× reaction buffer containing 4% DMSO;
# 2. Tag1-PD-L1 protein and Tag2-PD1 protein were prepared in 1× reaction buffer at concentrations of […] and 10 nM, respectively. The final reaction concentration of the experiment was 10 nM Tag1-PD-L1 and 2 nM […];
# 3. anti-Tag1-Eu3+ antibody is prepared in 1x concentration detection buffer at a ratio of 1:100;
# 4. anti-Tag2-XL665 antibody is prepared in 1x concentration detection buffer at a ratio of 1:25; Experimental steps
# 1. 5 μL of compounds to be tested (2×) was added;
# 2. 2.5 ul Tag1-PD-L1 protein and 2.5 ul Tag2-PD1 protein were added respectively, and the total reaction system is 10 ul, and reacted at 25° C. for 15 minutes;
# 3. 5 ul anti-Tag1-Eu3+ antibody and 5 ul anti-Tag2-XL665 antibody were added respectively, and reacted at 25° C. for 16 hours;
# 4. The fluorescence microplate reader HTRF reading program was used to read two readings at 665 nm and 620 nm, the ratio of the two wavelengths was used to judge the activity of the compound, and the IC50 of the compound to be tested is calculated by XLFIT5.0 (IDBS).
# T1 sequence (Q9NZQ7 19-238 limits assumed): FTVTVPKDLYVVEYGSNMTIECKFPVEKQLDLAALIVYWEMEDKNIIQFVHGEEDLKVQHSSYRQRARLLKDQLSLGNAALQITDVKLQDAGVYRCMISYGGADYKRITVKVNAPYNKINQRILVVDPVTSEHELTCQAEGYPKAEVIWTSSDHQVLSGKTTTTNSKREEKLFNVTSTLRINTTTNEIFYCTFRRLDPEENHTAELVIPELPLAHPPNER
row,IC50 [nM],Compound
1,1,COc1cc(/C=C/c2cccc(-c3cccc(NC(=O)c4ccc(CN5CC[C@@H](O)C5)cn4)c3C#N)c2Cl)c(C(F)(F)F)cc1CN1CC[C@@H](C(=O)O)C1 [Z-104]
2,< 1,Cc1cc(/C=C/c2nccc(-c3cccc(NC(=O)c4ccc(CN5CC[C@@H](O)C5)cn4)c3C)c2C)c(Cl)cc1CN1CC[C@@H](C(=O)O)C1 [Z-65]
3,2,COc1cc(/C=C/c2nccc(-c3cccc(Nc4nccc5cc(CN6CC[C@@H](O)C6)cnc45)c3C)c2C#N)c(C(F)(F)F)cc1CN1CC[C@@H](C(=O)O)C1 [Z-13]
4,1,COc1cc(C(=O)Nc2cccc(-c3cccc(/C=C/c4cc(C)c(CN5CC[C@@H](C(=O)O)C5)cc4C(F)(F)F)c3C)c2C)ncc1CN1CC[C@@H](O)C1 [Z-127]
5,2,"Cc1cc(/C=C/c2nccc(-c3cccc(NC(=O)c4nc5c(n4C)CCN(C4CCOCC4)C5)c3C)c2C#N)c(Cl)cc1CN1CCCC[C@H]1C(=O)O [Z-73, (S, E)-1-(5-chloro-4-(2-(3-cyano-4-(2-methyl-3-(l-methyl-5-(tetrahydro-2H-pyran-4-yl)-4,5,6,7-tetrahydro-1H-imidazo[4,5-c]pyridine-2-carboxamido)phenyl)pyridin-2-yl)vinyl)-2-methylbenzyl) piperidine-2-carboxylic Acid]"
6,1,"Cc1cc(/C=C/c2nccc(-c3cccc(Nc4nccc5cc(CN6CC[C@@H](O)C6)cnc45)c3C)c2C#N)c(Cl)cc1CN1CCCC[C@H]1C(=O)O [Z-7, (S)-1-(5-chloro-4-((E)-2-(3-cyano-4-(3-((3-(((R)-3-hydroxypyrrolidin-1-yl)methyl)-1,7-naphthyridin-8-yl)amino)-2-methylphenyl)pyridin-2-yl)vinyl)-2-methylbenzyl)piperidine-2-carboxylic Acid]"
7,3,COc1cc(/C=C/c2cccc(-c3cccc(NC(=O)c4ccc(CN5CC[C@@H](O)C5)c(OC)n4)c3C)c2C)c(C(F)(F)F)cc1CN1CCC[C@H]1C(=O)O [Z-116]
8,2,Cc1cc(/C=C/c2nccc(-c3cccc(-c4nc5cc(CN6CC[C@@H](C(=O)O)C6)cc(Cl)c5o4)c3C)c2C#N)c(C(F)(F)F)cc1CN1CC[C@@H](O)C1 [Z-48]
9,1,COc1cc(/C=C/c2cccc(-c3cccc(NC(=O)c4ccc(CN5CC[C@@H](O)C5)cn4)c3F)c2F)c(C(F)(F)F)cc1CN1CC[C@@H](C(=O)O)C1 [Z-100]
10,1,Cc1cc(/C=C/c2nccc(-c3cccc(-c4nc5cc(CN6CC[C@@H](O)C6)ccc5o4)c3C)c2C#N)c(Cl)cc1CN1CC[C@@H](C(=O)O)C1 [Z-47]
11,32,Cc1c(NC(=O)c2ccc(CNCCO)cn2)cccc1-c1ccnc(/C=C/c2ccc3c(c2)CCN(CCO)C3)c1C#N [Z-63]
12,3,COc1cc(/C=C/c2cccc(-c3cccc(-c4nc(OC)c(CNC[C@@H]5CCC(=O)N5)cc4Cl)c3C)c2C)c(C(F)(F)F)cc1CN1CC[C@@H](C(=O)O)C1 [Z-55]
13,3,"COc1cc(/C=C/c2cccc(-c3cccc(Nc4nccc5cc(CN6CC[C@@H](O)C6)c(C(F)(F)F)nc45)c3C)c2C)c(C(F)(F)F)cc1CN1CC[C@@H](C(=O)O)C1 [Z-10, (R)-1-(4-((E)-2-(3′-((3-(((R)-3-hydroxypyrrolidin-1-yl)methyl)-2-(trifluoromethyl)-1,7-naphthyridin-8-yl)amino)-2,2′-dimethyl-[1,1′-biphenyl]-3-yl)vinyl)-2-methoxy-5-(trifluoromethyl)benzyl)pyrrolidine-3-carboxylic Acid]"
14,2,"Cc1cc(/C=C/c2nccc(-c3cccc(NC(=O)c4ccc(CN5CCCC[C@@H]5C(=O)O)cn4)c3C)c2C#N)c(Cl)cc1CN1CC[C@@H](O)C1 [Z-6, (R)-1-((6-((3-(2-((E)-2-chloro-4-(((R)-3-hydroxypyrrolidin-1-yl)methyl)-5-methylstyryl)-3-cyanopyridin-4-yl)-2-methylphenyl)carbamoyl)pyridin-3-yl)methyl)piperidine-2-carboxylic Acid]"
15,1,COc1cc(/C=C/c2cccc(-c3cccc(NC(=O)c4cc(OC)c(CN5CC[C@@H](O)C5)cn4)c3C)c2C)c(C(F)(F)F)cc1CN1CC(C(=O)O)C1 [Z-130]
16,5,COc1cc(/C=C/c2cccc(-c3cccc(NC(=O)c4cc(OC)c(CN5CC[C@@H](C(=O)O)C5)cn4)c3C)c2C)c(C(F)(F)F)cc1CN1CC[C@@H](O)C1 [Z-136]

row,IC50 [nM],Compound
1,1,"Cc1cc(/C=C/c2nccc(-c3cccc(NC(=O)c4ccc(CN5CC[C@@H](O)C5)cn4)c3C)c2C#N)c(Cl)cc1CN1CCC(C)(C(=O)O)C1 (stereo partly drawn) [Z-67, 1-(5-chloro-4-((E)-2-(3-cyano-4-(3-(5-(((R)-3-hydroxypyrrolidin-1-yl)methyl)picolinamido)-2-methylphenyl)pyridin-2-yl)vinyl)-2-methylbenzyl)-3-methylpyrrolidine-3-carboxylic Acid]"
2,2,COc1cc(/C=C/c2cccc(-c3cccc(-c4nc5cc(CN6CC[C@@H](O)C6)ccc5o4)c3C)c2C#N)c(C(F)(F)F)cc1CN1CC[C@@H](C(=O)O)C1 [Z-19]
3,1,Cc1cc(/C=C/c2nccc(-c3cccc(-c4nc5cc(CN6CC[C@@H](O)C6)cc(Cl)c5o4)c3C)c2C#N)c(Cl)cc1CN1CC[C@@H](C(=O)O)C1 [Z-46]
4,2,COc1cc(/C=C/c2cccc(-c3cccc(-c4nc5cc(CN6CC[C@@H](C(=O)O)C6)ccc5o4)c3C)c2C)c(C(F)(F)F)cc1CN1CC[C@H](O)C1 [Z-31]
5,1,"COc1cc(/C=C/c2cccc(-c3cccc(NC(=O)c4nc5c(n4C)CCN(C)C5)c3C)c2C)c(C(F)(F)F)cc1CN1CC[C@@H](C(=O)O)C1 [Z-126, (R,E)-1-(4-(2-(3′-(1,5-dimethyl-4,5,6,7-tetrahydro-1H-imidazo[4,5-c]pyridine-2-carboxamido)-2,2′-dimethyl-[1,1′-biphenyl]-3-yl)vinyl)-2-methoxy-5-(trifluoromethyl)benzyl)pyrrolidine-3-carboxylic Acid]"
6,2,COc1cc(/C=C/c2cccc(-c3cccc(-c4nc5cc(CN6CC[C@@H](O)C6)ccc5o4)c3C)c2F)c(C(F)(F)F)cc1CN1CC[C@@H](C(=O)O)C1 [Z-20]
7,2,Cc1cc(CN2CCCC[C@H]2C(=O)O)c(C)cc1/C=C/c1nccc(-c2cccc(NC(=O)c3ccc(CN4CC[C@@H](O)C4)cn3)c2C)c1C#N [Z-72]
8,57,Cc1c(NC(=O)c2ccc(CN3CC[C@@H](O)C3)cn2)cccc1-c1ccnc(/C=C/c2ccc(CN3CC[C@@H](C(=O)O)C3)cn2)c1C#N [Z-69]
9,36,COc1cc(/C=C/c2nccc(-c3cccc(NC(=O)c4ccc(CN5CC[C@@H](O)C5)cn4)c3C)c2C#N)cc(OC)c1CN1CCCC[C@H]1C(=O)O [Z-75]
10,2,"Cc1cc(/C=C/c2nccc(-c3cccc(-c4nc5c(s4)CN(C(=O)CN(C)C)CC5)c3C)c2C#N)c(Cl)cc1CN1CC[C@@H](C(=O)O)C1 [Z-61, (R,E)-1-(5-chloro-4-(2-(3-cyano-4-(3-(5-(dimethylglycyl)-4,5,6,7-tetrahydrothiazolo [5,4-c]pyridin-2-yl)-2-methylphenyl)pyridin-2-yl)vinyl)-2-methylbenzyl)pyrrolidine-3-carboxylic Acid]"
11,3,"COc1cc(/C=C/c2cccc(-c3cccc(Nc4n[nH]c5ccc(CN6CC[C@@H](O)C6)cc45)c3C)c2C)c(C(F)(F)F)cc1CN1CC[C@@H](C(=O)O)C1 [Z-15, (R)-1-(4-((E)-2-(3′-((5-(((R)-3-hydroxypyrrolidin-1-yl)methyl)-1H-indazole-3-yl)amino)-2,2′-dimethyl-[1,1′-biphenyl]-3-yl)vinyl)-2-methoxy-5-(trifluoromethyl)benzyl)pyrrolidine-3-carboxylic Acid]"
12,< 1,"Cc1cc(/C=C/c2nccc(-c3cccc(NC(=O)c4ccc(CNCCO)cn4)c3C)c2C#N)c(F)cc1CNCCO [Z-4, (E)-N-(3-(3-cyano-2-(2-fluoro-4-(((2-hydroxyethyl)amino)methyl)-5-methylstyryl)pyridin-4-yl)-2-methylphenyl)-5-(((2-hydroxyethyl)amino)methyl)picolinamide]"
13,5,Cc1cc(/C=C/c2nccc(-c3cccc(NC(=O)c4ccc(CN5CCOCC5)cn4)c3C)c2C#N)c(Cl)cc1CN1CCCC[C@H]1C(=O)O [Z-71]
14,1,"Cc1cc(/C=C/c2nccc(-c3cccc(NC(=O)c4ccc(CN5CC[C@@H](O)C5)cn4)c3C)c2C#N)c(C2CC2)cc1CN1CC[C@@H](C(=O)O)C1 [Z-79, (R)-1-(4-((E)-2-(3-cyano-4-(3-(5-(((R)-3-hydroxypyrrolidin-1-yl)methyl)picolinamido)-2-methylphenyl)pyridin-2-yl)vinyl)-5-cyclopropyl-2-methylbenzyl)pyrrolidine-3-carboxylic Acid]"
15,3,Cc1cc(/C=C/c2cccc(-c3cccc(NC(=O)c4ccc(CN5CC[C@@H](O)C5)cn4)c3C)c2C(F)(F)F)c(Cl)cc1CN1CC[C@@H](C(=O)O)C1 [Z-88]
16,1,COc1cc(/C=C/c2nccc(-c3cccc(-c4nc5cc(CN6CC[C@@H](C(=O)O)C6)cc(C#N)c5o4)c3C)c2C#N)c(C(F)(F)F)cc1CN1CC[C@@H](O)C1 [Z-50]

# Source: patent publication US20210386721A1, “SUBSTITUTED PHENYLPROPENYL PYRIDINE DERIVATIVES, THEIR PREPARATION AND PHARMACEUTICAL APPLICATIONS” (SHANGHAI HAIYAN PHARMACEUTICAL TECHNOLOGY CO., LTD., priority 2019, published 2021)
